ChEMBL document CHEMBL1137802, “Specific antioxidant activity of caffeoyl derivatives and other natural phenolic compounds: LDL protection against oxidation and decrease in the proinflammatory lysophosphatidylcholine production” (J Nat Prod, 2001)
Active and inactive are the calls of the source. No cut-off for these calls is given here.

Columns and labels:
Assay type in all cases: functional, cell-free
[1] = Antioxidant activity against Cu2+-induced lipid peroxidation in human plasma LDL preincubated for 1 hr before Cu2+ challenge
[2] = Antioxidant activity against AAPH-induced lipid peroxidation in human plasma LDL preincubated for 1 hr before AAPH challenge
[3] = Antioxidant activity against AAPH-induced lipid peroxidation in human plasma LDL at 0.2 umol/L preincubated for 1 hr before AAPH challenge
[4] = Antioxidant activity against AAPH-induced lipid peroxidation in human plasma LDL at 1 umol/L preincubated for 1 hr before AAPH challenge
[5] = Antioxidant activity against Cu2+-induced lipid peroxidation in human plasma LDL at 0.01 to 0.1 umol/L preincubated for 1 hr before Cu2+ challenge
[6] = Antioxidant activity against AAPH-induced lipid peroxidation in human plasma LDL at 0.01 to 0.1 umol/L preincubated for 1 hr before AAPH challenge

Compound | Activity [1] | further results
COc1cc(/C=C/C(=O)O)cc(OC)c1O | 47.4 µM/L | 
COc1cc(/C=C/C(=O)O)ccc1O | 8.5 µM/L | 
Oc1cc(O)c2c(c1)OC(c1ccc(O)c(O)c1)C(O)C2 (stereo unspecified) | 34.6 µM/L | Activity [2]: 156 µM/L
O=C(O)c1ccccc1O | inactive | 
O=C(O)c1cc(O)c(O)c(O)c1 |  | Activity [3]: 90 µM/L; Activity [4]: 30 µM/L; Activity [5]: Active; Activity [6]: Active
O=C(/C=C/c1ccc(O)c(O)c1)O[C@H](Cc1ccc(O)c(O)c1)C(=O)O | 150 µM/L | 
Oc1cc(O)c2c(c1)O[C@H](c1ccc(O)c(O)c1)[C@H](O)C2 | 37.1 µmol/L | 
O=C(O)/C=C/c1ccc(O)cc1 | 0.6 µM/L | 
O=C(O)c1ccc(O)c(O)c1 |  | Activity [5]: Active; Activity [6]: Active
O=C(/C=C/c1ccc(O)c(O)c1)O[C@@H]1C[C@](O)(C(=O)O)C[C@@H](O)[C@H]1O | 156 µM/L | Activity [2]: 55.3 µM/L
O=C(O)/C=C/c1ccc(O)c(O)c1 | 54 µM/L | Activity [2]: 73.6 µM/L
CC(=O)Oc1ccccc1C(=O)O | inactive | 
VITAMIN E | 7.2 µM/L | 
O=C(/C=C/c1ccc(O)c(O)c1)OC(C(=O)O)C(O)C(=O)O (stereo unspecified) | 125 µM/L | 
